From patent publication EP4799647A1, “CAMPTOTHECIN DRUG CONJUGATE, AND PREPARATION METHOD THEREFOR AND USE THEREOF” (Shanghai Qilu Pharmaceutical Research and Development …, priority 2023, dated 2025)

What was measured:
Assay in all cases: Cell inhibitory activity experiment (CellTiter-Glo, 72 hours)
Type in all cases: cell-based
[1] = system: HT29; settings: Homo sapiens, HT-29; HT29, 72 hours
Experimental: (§1) • a) All cell lines were cultured in complete medium at 37 °C under 5% CO2. • b) Cells in logarithmic growth phase were collected and counted by a […]. The cell viability was detected by trypan blue exclusion method, and guaranteed to be over 90%. • c) The cell density was adjusted with a complete medium. Subsequently, 80 µL of cell suspension was seeded into each well of a 96-well cell culture plate according to 3000 cells per well. • d) The cells in the 96-well plate were cultured at 37°C under 5% CO2. • e) 10× drug solution was prepared. […] The working concentration of the test compound was 5 µM. For the test group, 10 µL of serially diluted test compound was transferred into the corresponding experimental well of 96-well cell culture plate, and added with 10 µL of diluent containing an equal amount of DMSO (1%), and three replicate wells were set up for each drug concentration. Control wells were added with corresponding volumes of diluent. • f) The cells in the 96-well plate added with the drug were continuously cultured at 37°C under 5% CO2 for 72 hours. • g) CTG reagent (CellTiter-Glo® Luminescent Cell Viability Assay, purchased from Promega, Cat. No. G7571) was thawed, and the cell culture plate was equilibrated to room temperature for 30 minutes. • h) 100 µL of CTG solution was added into each well. • i) The plate was shaken on an orbital shaker for 5 minutes to induce cell lysis. • j) The cell culture plate was placed at room temperature for 20 minutes to stabilize luminescent signals. • k) Luminescence intensities were read, and data were collected. • l) The data were analyzed by using GraphPad Prism 7.0 software, non-linear S-curve regression was applied to fit the data for generating dose-response curves, and IC50 values were calculated accordingly. Specific experimental results were shown in Table 4. [formula] Table 4 Cell inhibitory activities of payload compounds in the present invention

[2] = system: COLO205; settings: Homo sapiens, COLO 205; COLO205, 72 hours
Experimental: as §1

[3] = system: AsPC-1; settings: Homo sapiens, ASPC1; AsPC-1, 72 hours
Experimental: as §1

[4] = system: COLO320DM; settings: Homo sapiens, COLO 320DM
Experimental: as §1

[5] = system: HCT15; settings: Homo sapiens, HCT-15; HCT15, 72 hours
Experimental: as §1

[6] = system: A549; settings: Homo sapiens; A549, 72 hours
Experimental: as §1

[7] = system: SK-OV-3; settings: Homo sapiens; SK-OV-3, 72 hours
Experimental: as §1

Question: With `CC[C@@]1(O)C(=O)OCc2c1cc1n(c2=O)Cc2c-1nc1cc(F)c(C)c3c1c2[C@@H](NC(=O)CO)CC3` [DXd] as the compound, how does the IC50 [1] read?
Answer: Its IC50 is 344 nM.

Question: What about the IC50 [2] of the same compound?
Answer: Its IC50 is 95.5 nM.

Question: What about the IC50 [3] of the same compound?
Answer: Its IC50 is 3100 nM.

Question: And the IC50 [4]?
Answer: The IC50 was 575 nM.

Question: And the IC50 [5]?
Answer: The IC50 was 889 nM.

Question: What about the IC50 [6] of the same compound?
Answer: The IC50 was 104 nM.

Question: What about the IC50 [7] of the same compound?
Answer: Its IC50 is 288 nM.

Question: `CC[C@@]1(O)C(=O)OCc2c1cc1n(c2=O)Cc2c-1nc1cc(F)c(F)cc1c2CO` [C1-5, (4S)-4-ethyl-8,9-difluoro-4-hydroxy-11-(hydroxymethyl)-3,4,12,14-tetrahydro-1H-pyrano[3', 4':6,7]indolizino[1,2-b]quinolin-3,14-dione] was tested. Which IC50 [1] did it give?
Answer: The IC50 was 144 nM.

Question: And the IC50 [2]?
Answer: The IC50 was 24.3 nM.

Question: What about the IC50 [3] of the same compound?
Answer: The IC50 was 1120 nM.

Question: And the IC50 [4]?
Answer: Its IC50 is 196 nM.

Question: What about the IC50 [5] of the same compound?
Answer: The IC50 was 142 nM.

Question: What about the IC50 [6] of the same compound?
Answer: The IC50 was 21.1 nM.

Question: And the IC50 [7]?
Answer: Its IC50 is 79.5 nM.

Question: Which results are given for `CCc1c2c(nc3ccc(O)cc13)-c1cc3c(c(=O)n1C2)COC(=O)[C@]3(O)CC` [SN-38]?
Answer: IC50 [1]: 287 nM; IC50 [2]: 89.6 nM; IC50 [3]: > 10000 nM; IC50 [4]: 1420 nM; IC50 [5]: 313 nM; IC50 [6]: 66.5 nM; IC50 [7]: 168 nM
